{"source": "patent US20030082101A1", "about": "“Accelerators for increasing the rate of formation of free radicals and reactive oxygen species” (Cavalier Discovery, priority 2001, published 2003)", "format_in_all_cases": "biochemical", "key": {"ferritin [1]": {"system": "ferritin", "assay": "Release of iron from ferritin assay, additives, ultrasound (Example 10)", "conditions": "0.2 mg/mL ferritin, pH 7, 15 min", "method": "(§1) The following example uses the release of iron from ferritin assay to show the effect of additives on the release of iron from ferritin during ultrasound exposure. All solutions were prepared in pH 7 acetic acid solution containing approximately 0.2 mg/mL ferritin and 1 mM ferrozine, and the concentration of 1,4-quinone indicated in the table below. Solutions were sonicated at 30 W, 2 MHz, 32-34 degrees Celsius for fifteen minutes using a PZT-8 1.8 cm diameter custom transducer. The sonicated solution was placed on an orbit shaker rotating at 25 RPM to ensure even sonication of the solution while the transducer was held stationary. Control solutions were placed in a controlled temperature bath at 32-34 degrees Celsius without sonication. After 15 minutes of treatment, an aliquot was tested for the presence of the iron-ferrozine chelate via absorbance at 562 nm. The amount of iron released was determined using the control solution corrected absorbance (subtract the absorbance of the control solution from the absorbance of the ultrasound solution). The corrected absorbance was compared to a ferrozine-iron standard curve to determine the enhanced iron release due to ultrasound exposure. The enhanced iron release due to ultrasound exposure in the presence of the additive was compared to the amount of enhanced iron release due to ultrasound exposure in the absence of any additives as follows: [formula]"}, "ferritin [2]": {"system": "ferritin", "assay": "Release of iron from ferritin assay, naphthoquinones, ultrasound (Example 8)", "conditions": "iron release vs ultrasound without additive, 0.2 mg/mL ferritin, pH 7, 15 min", "method": "as §1, with “of naphthoquinones” for “of additives”, “of naphthoquinone” for “of 1,4-quinone”, “the amount of” for “the enhanced”, “iron released.” for “iron release due to ultrasound exposure.”, “the naphthoquinone” for “the additive”"}, "deoxyribose [3]": {"system": "deoxyribose", "assay": "TBARS assay, existing sonodynamic agents with a metal, ultrasound (Example 13)", "conditions": "0.025 mM ferrous iron, 0.025 mM ferric iron", "method": "(§2) All solutions were prepared in pH 7.5 phosphate buffer containing approximately 2 mM deoxyribose, 0.01% hydrogen peroxide, 0.025 mM ferrous iron, 0.025 mM ferric iron, and the additives indicated in the table below. Solutions were sonicated at 30 W, 2 MHz, 32-34 degrees Celsius for ten minutes using a PZT-8 1.8 cm diameter custom transducer. The sonicated solution was placed on an orbit shaker rotating at 25 RPM to ensure even sonication of the solution while the transducer was held stationary. Control solutions were placed in a controlled temperature bath at 32-34 degrees Celsius without sonication. After 10 minutes of treatment, 1 mL test solution was placed in a test tube followed by 2 mL of 1% 2-thiobarbituric acid and 2 mL of 2.8% trichloroacetic acid. The test tube was sealed and heated to 90 degrees Celsius for 30 minutes and allowed to cool to room temperature for 20 minutes. The absorbance at 532 nm was measured. The enhanced radical production during ultrasound exposure was determined by comparing the amount of deoxyribose degradation that occurs in the sonicated solution versus the control solution using the following equation: [formula]"}, "ferritin [4]": {"system": "ferritin", "assay": "Release of iron from ferritin assay, anthraquinones, ultrasound (Example 9)", "conditions": "0.2 mg/mL ferritin, pH 7.5, 15 min", "quoted_text": "All solutions are prepared in pH 7.5 phosphate buffer containing approximately 0.2 mg/mL ferritin and 1 mM ferrozine, and the concentration of anthraquinone indicated in the table below. Solutions are sonicated at 30 W, 2 MHz, 32-34 degrees Celsius for fifteen minutes using a PZT-8 1.8 cm diameter custom transducer. The sonicated solution is placed on an orbit shaker rotating at 25 RPM to ensure even sonication of the solution while the transducer is held stationary. Control solutions are placed in a controlled temperature bath at 32-34 degrees Celsius without sonication. After 15 minutes of treatment, an aliquot is tested for the presence of the iron-ferrozine chelate via absorbance at 562 nm. The amount of iron released is determined using the control solution corrected absorbance (subtract the absorbance of the control solution from the absorbance of the ultrasound solution). The corrected absorbance is compared to a ferrozine-iron standard curve to determine the amount of iron released."}, "[5]": {"assay": "Free radical production when exposed to ultrasound and a metal (statements in the description)", "conditions": "when exposed to ultrasound and a metal"}, "deoxyribose [6]": {"system": "deoxyribose", "assay": "TBARS assay, metals that enhance radical production during ultrasound (Example 6)", "method": "as §2, with “The following example uses the thiobarbituric acid-reactive substances (TBARS) assay to identify metals that enhance radical production during ultrasound. All” for “All”, “peroxide,” for “peroxide, 0.025 mM ferrous iron, 0.025 mM ferric iron,”"}, "deoxyribose [7]": {"system": "deoxyribose", "assay": "TBARS assay, additives with ferrous iron/EDTA, ultrasound (Example 11)", "conditions": "0.075 mM additive; 0.05 mM ferrous iron, 0.075 mM EDTA", "method": "as §2, with “The following example uses the thiobarbituric acid-reactive substances (TBARS) assay to identify metals that enhance radical production during ultrasound. All” for “All”, “are” for “were”, “0.05” for “0.025”, “iron added as FeSO4 hydrate, 0.075” for “iron, 0.025”, “EDTA,” for “ferric iron,”, “is” for “was”"}, "deoxyribose [8]": {"system": "deoxyribose", "assay": "TBARS assay, existing sonodynamic agents with a metal, ultrasound (Example 14)", "conditions": "0.025 mM ferrous iron, 0.025 mM ferric iron", "method": "as §2, with “are” for “were”, “is” for “was”"}}}
{"compound": "O=C1C=CC(=O)C=C1", "note": "[1,4 benzoquinone]", "values": [{"measurement": "% Ultrasound Mediated Activity", "setting": "ferritin [1]; concentration not given", "result": 0, "unit": "%"}]}
{"compound": "O=C1C=CC(=O)c2c(O)ccc(O)c21", "note": "[5,8 dihydroxy-1,4-naphthoquinone]", "values": [{"measurement": "% Ultrasound Mediated Activity", "setting": "ferritin [2]; 106 uM additive", "result": 185, "unit": "%"}]}
{"compound": "O=C1C=CC(=O)c2c(O)cccc21", "note": "[5-hydroxy-1,4-naphthoquinone (juglone), 5-hydroxy-1,4-naphthoquinone]", "values": [{"measurement": "% Ultrasound Mediated Activity", "setting": "ferritin [2]; 10 uM additive", "result": 93, "unit": "%"}]}
{"compound": "CC1=CC(=O)c2c(O)cccc2C1=O", "note": "[5-hydroxy-2-methyl-1,4-naphthoquinone]", "values": [{"measurement": "% Ultrasound Mediated Activity", "setting": "ferritin [2]; 71 uM additive", "result": 155, "unit": "%"}]}
{"compound": "COc1cccc2c1C(=O)c1c(O)c3c(c(O)c1C2=O)C[C@@](O)(C(=O)CO)C[C@@H]3O[C@H]1C[C@H](N)[C@H](O)[C@H](C)O1", "note": "[Adriamycin]", "values": [{"measurement": "% Ultrasound Mediated Activity vs Control", "setting": "deoxyribose [3]; 0.029 mM additive", "result": 29, "unit": "%"}]}
{"compound": "O=C1c2ccccc2C(=O)c2c1cc(S(=O)(=O)O)c(O)c2O", "note": "[Alizarin Red S, 3,4-dihydroxy-9,10-dioxo-2-anthracenesulfonic acid]", "values": [{"measurement": "% Ultrasound Mediated Activity", "setting": "ferritin [4]; 0.05 mM additive", "result": ">50", "unit": "%"}]}
{"compound": "O=C1c2ccccc2C(=O)c2cc(S(=O)(=O)O)ccc21", "note": "[Anthraquinone-2-sulfonic acid]", "values": [{"measurement": "% Ultrasound Mediated Activity", "setting": "ferritin [4]; concentration not given", "result": "<10", "unit": "%"}]}
{"compound": "N[C@@H](CS)C(=O)O", "note": "[CYSTEINE]", "values": [{"measurement": "free radical production", "setting": "[5]", "result": "increase free radical production"}, {"measurement": "% Ultrasound Mediated Activity", "setting": "ferritin [1]; 0.45 mM additive", "result": 160, "unit": "%"}]}
{"compound": "Cc1cc(O)c2c(c1)C(=O)c1cccc(O)c1C2=O", "note": "[Chrysophanol, 1,8-dihydroxy-3-methylanthraquinone]", "values": [{"measurement": "% Ultrasound Mediated Activity", "setting": "ferritin [4]; 0.05 mM additive", "result": ">50", "unit": "%"}]}
{"compound": "[Cl][Cu][Cl]", "note": "[Cupric chloride]", "values": [{"measurement": "% Ultrasound Mediated Activity vs Control", "setting": "deoxyribose [6]; cupric chloride 0.026 mM", "result": 82, "unit": "%"}]}
{"compound": "O=C(O)/C(O)=C(\\O)C(=O)O", "note": "[DIHYDROXYFUMARATE]", "values": [{"measurement": "% Ultrasound Mediated Activity", "setting": "ferritin [1]; 0.01 mM additive", "result": 72, "unit": "%"}]}
{"compound": "Cc1cc(O)c2c(c1)C(=O)c1cc(O)cc(O)c1C2=O", "note": "[Emodin, 6-methyl-1,3,8-trihydroxyanthraquinone]", "values": [{"measurement": "% Ultrasound Mediated Activity", "setting": "ferritin [4]; 0.05 mM additive", "result": ">50", "unit": "%"}]}
{"compound": "[Cl][Fe]([Cl])[Cl]", "note": "[Ferric iron added as FeCl3, FeCl3]", "values": [{"measurement": "% Ultrasound Mediated Activity vs Control", "setting": "deoxyribose [6]; ferric iron approx 0.1 mM", "result": 76, "unit": "%"}]}
{"compound": "O=S(=O)([O-])[O-].O=S(=O)([O-])[O-].[Fe+2].[NH4+].[NH4+]", "note": "[Ferrous iron added as Fe(NH4)2(SO4)2, Fe(NH4)2(SO4)2]", "values": [{"measurement": "% Ultrasound Mediated Activity vs Control", "setting": "deoxyribose [6]; ferrous iron 0.1 mM", "result": 12, "unit": "%"}]}
{"compound": "O=c1c(O)c(-c2cc(O)c(O)c(O)c2)oc2cc(O)cc(O)c12", "note": "[Myricetin]", "values": [{"measurement": "% Ultrasound Mediated Activity vs Control", "setting": "deoxyribose [7]", "result": ">100", "unit": "%"}]}
{"compound": "CC(C)(S)[C@@H](N)C(=O)O", "note": "[PENICILLAMINE]", "values": [{"measurement": "free radical production", "setting": "[5]", "result": "increase free radical production"}, {"measurement": "% Ultrasound Mediated Activity", "setting": "ferritin [1]; 0.11 mM additive", "result": 117, "unit": "%"}]}
{"compound": "O=c1c(O)c(-c2ccc(O)c(O)c2)oc2cc(O)cc(O)c12", "note": "[Quercetin]", "values": [{"measurement": "% Ultrasound Mediated Activity vs Control", "setting": "deoxyribose [7]", "result": ">100", "unit": "%"}]}
{"compound": "O=C(O)c1cc(O)c2c(c1)C(=O)c1cccc(O)c1C2=O", "note": "[Rhein, 9,10-dihydro-4,5-dihydroxy-9,10-dioxo-2-anthracenecarboxylic acid]", "values": [{"measurement": "% Ultrasound Mediated Activity", "setting": "ferritin [4]; 0.05 mM additive", "result": ">50", "unit": "%"}]}
{"compound": "O=C([O-])c1c(Cl)c(Cl)c(Cl)c(Cl)c1-c1c2cc(I)c(=O)c(I)c-2oc2c(I)c([O-])c(I)cc12.[Na+].[Na+]", "note": "[Rose Bengal]", "values": [{"measurement": "% Ultrasound Mediated Activity vs Control", "setting": "deoxyribose [3]; 0.028 mM additive", "result": 28, "unit": "%"}]}
{"compound": "O=C1C(O)=C(O)C(=O)C(O)=C1O", "note": "[Tetrahydroxy 1,4-benzoquinone]", "values": [{"measurement": "% Ultrasound Mediated Activity", "setting": "ferritin [1]; 0.11 mM additive", "result": 186, "unit": "%"}]}
{"compound": "Ferritin", "values": [{"measurement": "% Ultrasound Mediated Activity vs Control", "setting": "deoxyribose [6]; ferritin approx. 0.2 mg/mL", "result": 6, "unit": "%"}]}
{"compound": "Hypocrellin A", "values": [{"measurement": "% Ultrasound Mediated Activity vs Control", "setting": "deoxyribose [8]; 0.025 mM additive", "result": ">30", "unit": "%"}]}
{"compound": "Iron(III) phthalocyanine-4,4′,4″,4″′-tetrasulfonic acid", "values": [{"measurement": "% Ultrasound Mediated Activity vs Control", "setting": "deoxyribose [8]; 0.025 uM additive", "result": ">30", "unit": "%"}]}
